Laboratory results from patent US7566718B2, “Amine-linked pyridyl and phenyl substituted piperazine-piperidines with CXCR3 antagonist activity” (Schering Corporation, priority 2005, dated 2009).

Target: T1, human CXCR3 (N-delta 4) (Homo sapiens, UniProt P49682)
T1 construct: CD8 leader (N); Flag tag; expressed in transfected cells; membrane preparation
T1 sequence (P49682 5-368 limits assumed): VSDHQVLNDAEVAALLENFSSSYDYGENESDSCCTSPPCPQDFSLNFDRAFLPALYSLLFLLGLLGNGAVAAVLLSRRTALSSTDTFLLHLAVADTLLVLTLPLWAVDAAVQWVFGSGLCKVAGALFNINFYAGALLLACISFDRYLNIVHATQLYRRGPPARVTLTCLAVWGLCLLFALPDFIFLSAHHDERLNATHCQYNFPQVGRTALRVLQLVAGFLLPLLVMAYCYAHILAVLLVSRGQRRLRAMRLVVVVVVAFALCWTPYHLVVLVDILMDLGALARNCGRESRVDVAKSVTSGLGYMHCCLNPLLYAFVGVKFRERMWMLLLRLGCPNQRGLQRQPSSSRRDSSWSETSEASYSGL
Experiment: Human CXCR3 (N-delta 4) scintillation proximity assay (SPA), [125I] IP-10 binding to Ba/F3-hCXCR3 membranes
Settings: IC50 rating; [125I] IP-10 displacement, human CXCR3; read-out: IC50
Summary of the method: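 Membranes from Ba/F3 cells expressing Flag-tagged hCXCR3 (N-delta 4), 2 μg/point, precoupled to WGA SPA beads. Binding of 25 pM [125I] IP-10 measured with titrated compounds, 3 hr at room temperature, in HEPES buffer with CaCl2, MgCl2, NaCl and 1.0% BSA; bound tracer read by scintillation counting.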

| Structure (SMILES) | IC50 |
| --- | --- |
| CC[C@H]1CN(c2ncc(NC3=NS(=O)(=O)N=C3N(C)C)cc2Cl)CCN1C1CCN(Cc2ccc(F)c(F)c2)CC1 [Compound 272] | > 0.1 µM |
| CC[C@H]1CN(c2ncc(NC3=NS(=O)(=O)N=C3NCCO)cc2Cl)CCN1C1CCN(Cc2ccc(Cl)cc2F)CC1 [Compound 238] | < 0.025 µM |
| CC[C@H]1CN(c2ncc(N/C(N)=N/C#N)cc2Cl)CCN1C1CCN(Cc2ccc(Cl)cc2F)CC1 [Compound 208] | 0.025 to 0.1 µM |
| C[C@@H]1CN(c2ncc(Nc3c(NCC(F)(F)F)c(=O)c3=O)cc2Cl)[C@@H](C)CN1C1CCN(C2CCC(c3ccccc3)CC2)CC1 (stereo partly shown) [Compound 146] | > 0.1 µM |
| CC[C@H]1CN(c2ncc(NC3=NS(=O)(=O)N=C3NC[C@H](C)O)cc2Cl)CCN1C1CCN(Cc2ccc(Cl)cc2F)CC1 [Compound 253] | < 0.025 µM |
| CC[C@H]1CN(c2ncc(Nc3c(NC4CC4)c(=O)c3=O)cc2Cl)CCN1C1CCN(Cc2ccc(Cl)cc2C(N)=O)CC1 [Compound 81] | < 0.025 µM |
| CC[C@H]1CN(c2ncc(Nc3c(N4CCOCC4)c(=O)c3=O)cc2Cl)CCN1C1CCN(Cc2ccc(Cl)cc2F)CC1 [Compound 96] | < 0.025 µM |
| CC[C@H]1CN(c2ncc(Nc3c(C(C)C)c(=O)c3=O)cc2Cl)CCN1C1CCN(Cc2ccc(OC(F)(F)F)cc2)CC1 [Compound 86] | < 0.025 µM |
| CC[C@H]1CN(c2ncc(NS(C)(=O)=O)cc2Cl)CCN1C1CCN(C(C(=O)OC)c2ccc(Cl)cc2)CC1 (stereo partly shown) [Compound 39] | 0.025 to 0.1 µM |
| CC(=O)Nc1ccc(CN2CCC(N3C[C@H](C)N(c4ncc(Nc5c(NCC(F)(F)F)c(=O)c5=O)cc4Cl)C[C@H]3C)CC2)cc1 [Compound 147] | > 0.1 µM |
| CC[C@H]1CN(c2ccc([N+](=O)[O-])cc2Cl)CCN1C1CCN(Cc2ccc(Cl)cc2)CC1 [Compound 216] | > 0.1 µM |
| CC[C@H]1CN(c2ncc(Nc3c(NC4CC4)c(=O)c3=O)cc2Cl)CCN1C1CCN(C(=O)c2ccc(Cl)cc2)CC1 [Compound 102] | < 0.025 µM |
| CC[C@H]1CN(c2ncc(Nc3c(NCC(F)(F)F)c(=O)c3=O)cc2Cl)CCN1C1CCN(C(CO)c2ccc(Cl)cc2)CC1 (stereo partly shown) [Compound 85] | < 0.025 µM |
| CC[C@H]1CN(c2ncc(NS(=O)(=O)CC)cc2Cl)CCN1C1CCN(C(N)c2ccc(Cl)cc2F)CC1 (stereo partly shown) [Compound 15] | < 0.025 µM |
| COC1CCCC(CN2CCC(N3C[C@H](C)N(c4ncc(Nc5c(NCC(F)(F)F)c(=O)c5=O)cc4Cl)C[C@H]3C)CC2)O1 (stereo partly shown) [Compound 151] | > 0.1 µM |
| CC[C@H]1CN(c2ncc(NC(=O)C3CCCCC3)cc2Cl)CCN1C1CCN(Cc2ccc(Cl)cc2F)CC1 [Compound 195] | > 0.1 µM |
| CC[C@H]1CN(c2ncc(NS(C)(=O)=O)cc2Cl)CCN1C1CCN(C(C(N)=O)c2ccc(Cl)cc2)CC1 (stereo partly shown) [Compound 12] | < 0.025 µM |
| Cc1cc(Nc2c(NCC(F)(F)F)c(=O)c2=O)cnc1N1C[C@@H](C)N(C2CCN(C(=O)c3ccc(Cl)cc3)CC2)C[C@@H]1C [Compound 141] | > 0.1 µM |
| CC[C@H]1CN(c2ncc(NS(C)(=O)=O)cc2Cl)CCN1C1CCN([C@@H](C(=O)NC)c2ccc(Cl)cc2)CC1 [Compound 54] | > 0.1 µM |
| C[C@@H]1CN(c2ncc(Nc3c(NCC(F)(F)F)c(=O)c3=O)cc2Cl)[C@@H](C)CN1C1CCN(Cc2ccc(Cl)cc2F)CC1 [Compound 89] | < 0.025 µM |
| CC[C@H]1CN(c2ncc(NC3=NS(=O)(=O)N=C3NC(C)C)cc2Cl)CCN1C1CCN(Cc2ccc(Cl)cc2F)CC1 [Compound 243] | < 0.025 µM |
| CCNC(=O)Nc1cnc(N2CCN(C3CCN(Cc4ccc(Cl)cc4)CC3)[C@@H](C)C2)c(Cl)c1 [Compound 190] | 0.025 to 0.1 µM |
| CC[C@H]1CN(c2ncc(NC3=NS(=O)(=O)N=C3NCC(F)(F)F)cc2Cl)CCN1C1CCN(Cc2ccc(Cl)cc2F)CC1 [Compound 252] | < 0.025 µM |

| Structure (SMILES) | IC50 |
| --- | --- |
| CC[C@H]1CN(c2ncc(NS(C)(=O)=O)cc2Cl)CCN1C1CCN(Cc2ccc(Cl)s2)CC1 [Compound 26] | 0.025 to 0.1 µM |
| CC[C@H]1CN(c2ncc(Nc3c(NC4CCC4)c(=O)c3=O)cc2Cl)CCN1C1CCN(Cc2ccc(Cl)cc2)CC1 [Compound 78] | < 0.025 µM |
| CC[C@H]1CN(c2ncc(Nc3c(NCC(=O)O)c(=O)c3=O)cc2Cl)CCN1C1CCN([C@H](CO)c2ccc(Cl)cc2)CC1 [Compound 129] | > 0.1 µM |
| C[C@@H]1CN(c2ncc(Nc3c(NCC(F)(F)F)c(=O)c3=O)cc2Cl)[C@@H](C)CN1C1CCN(Cc2ccc(-c3ccccc3)cc2)CC1 [Compound 135] | > 0.1 µM |
| CC[C@H]1CN(c2ncc(NC3=NS(=O)(=O)N=C3NC[C@@H](C)O)cc2Cl)CCN1C1CCN(Cc2ccc(Cl)cc2F)CC1 [Compound 258] | 0.025 to 0.1 µM |
| C[C@@H]1CN(c2ncc(Nc3c(NCC(F)(F)F)c(=O)c3=O)cc2Cl)[C@@H](C)CN1C1CCN(C/C=C/c2ccccc2)CC1 [Compound 115] | > 0.1 µM |
| CC[C@H]1CN(c2ncc(NS(N)(=O)=O)cc2Cl)CCN1C1CCN(C(CO)c2ccc(Cl)cc2)CC1 (stereo partly shown) [Compound 3] | < 0.025 µM |
| CC[C@H]1CN(c2ncc(NC3=NS(=O)(=O)N=C3N(C)C)cc2Cl)CCN1C1CCN(Cc2ccc(OC(F)(F)F)cc2)CC1 [Compound 271] | > 0.1 µM |
| C[C@@H]1CN(c2ncc(Nc3c(NCC(F)(F)F)c(=O)c3=O)cc2Cl)[C@@H](C)CN1C1CCN(Cc2ccc(C#N)cc2)CC1 [Compound 114] | > 0.1 µM |
| C[C@H]1CN(c2nc(Cl)c(N)cc2Cl)CCN1C1CCN(Cc2ccc(Cl)cc2F)CC1 [Compound 228] | > 0.1 µM |
| CC[C@H]1CN(c2ncc(Nc3c(NC4CC4)c(=O)c3=O)cc2Cl)CCN1C1CCN(Cc2ccc(Cl)cc2)CC1 [Compound 70] | < 0.025 µM |
| CC[C@H]1CN(c2ncc(NC3=NS(=O)(=O)N=C3NC3CC3)cc2Cl)CCN1C1CCN(Cc2ccc(Cl)cc2-c2nnc[nH]2)CC1 [Compound 250] | < 0.025 µM |
| CC[C@H]1CN(c2ncc(NCCCC(F)(F)F)cc2Cl)CCN1C1CCN(Cc2ccc(Cl)cc2)CC1 [Compound 204] | 0.025 to 0.1 µM |
| CC[C@H]1CN(c2ncc(NS(C)(=O)=O)cc2Cl)CCN1C1CCN(Cc2ccc(Br)cc2OC)CC1 [Compound 65] | > 0.1 µM |
| CC[C@H]1CN(c2ncc(Nc3c(NC4CC4)c(=O)c3=O)cc2Cl)CCN1C1CCN(Cc2ccc(C#N)cc2)CC1 [Compound 80] | < 0.025 µM |
| CC[C@H]1CN(c2ncc(NS(C)(=O)=O)cc2Cl)CCN1C1CCN(Cc2ccc(Cl)cc2[N+](=O)[O-])CC1 [Compound 28] | 0.025 to 0.1 µM |
| C[C@@H]1CN(C2CCN(Cc3ccc(Cl)cc3)CC2)[C@@H](C)CN1c1ncc(NC(=O)NCC(F)(F)F)cc1Cl [Compound 197] | > 0.1 µM |
| CCCCNC1=NS(=O)(=O)N=C1Nc1cnc(N2CCN(C3CCN(Cc4ccc(Cl)cc4C(=N)NO)CC3)[C@@H](CC)C2)c(Cl)c1 [Compound 241] | < 0.025 µM |
| CC[C@H]1CN(c2ncc(NC3=NS(=O)(=O)N=C3NC(CO)C(N)=O)cc2Cl)CCN1C1CCN(Cc2ccc(Cl)cc2F)CC1 (stereo partly shown) [Compound 276] | > 0.1 µM |
| CC[C@H]1CN(c2ncc(NS(C)(=O)=O)cc2Cl)CCN1C1CCN(Cc2ccc(Cl)cc2C(=O)OC)CC1 [Compound 30] | 0.025 to 0.1 µM |
| CC[C@H]1CN(c2ncc(NC3=NS(=O)(=O)N=C3NCCNS(C)(=O)=O)cc2Cl)CCN1C1CCN(Cc2ccc(Cl)cc2F)CC1 [Compound 274] | > 0.1 µM |
| C[C@H]1CN(c2ncc(NS(C)(=O)=O)cc2Cl)CCN1C1CCN(CCCc2ccc(Cl)cc2)CC1 [Compound 57] | > 0.1 µM |
| CCNC(=O)Nc1ccc(N2CCN(C3CCN(Cc4ccc(Cl)cc4)CC3)[C@@H](CC)C2)c(Cl)c1 [Compound 192] | > 0.1 µM |
